Reference: article PMC7822874, “Chemoprotective antimalarials identified through quantitative high-throughput screening of Plasmodium blood and liver stage parasites” (Scientific Reports, 2021)
Like-named read-outs stand apart in the source and are kept apart here.

Assays:
[1] = test system: luciferase-expressing P. berghei liver stage parasites in HepG2 cells; assay: Inhibition of liver-stage development assay (ILSDA), Method 2 (WRAIR, 96-well); format: cell-based, Plasmodium berghei; conditions: for Max Resp (signal direction of the dose response): Method 2, Decrease = decreasing P. berghei viability with dose, Increase = increasing signal, Inactive = no dose response; for AC50: Plasmodium berghei, HepG2, Method 2
in vitro = conditions: human, hepg2-a16-cd81egfp cells, % viability
[2] = Hill fit, 50% of maximum activity response, read-out: AC50
[3] = log10 of molar AC50 from Hill fit, read-out: Log AC50 (converted)

| Structure (SMILES) | viability at 3 µM (in vitro) [%] | other results |
| --- | --- | --- |
| O=C(Nc1ncccc1O)c1ccc(S(=O)(=O)Nc2ccccc2)cc1 [MLS001099437-01] | – | Max Resp (signal direction of the dose response) [1]: Inactive |
| Cc1ccc(C)c2sc(N3CCN(C(=O)c4ccc([N+](=O)[O-])o4)CC3)nc12 [MLS001234268] | 94.7 | – |
| O=C(O)c1cc(-c2ccccc2)cc(-c2ccccc2)[n+]1Cc1ccccc1 [MLS001240915] | 98.5 | – |
| CC(=O)Nc1ccc(Nc2cc(C)nc(Nc3ccc(NC(C)=O)cc3)n2)cc1 [MLS001359830] | 93.2 | – |
| COc1cc(Cl)c(NC2=CC(=O)C(=O)c3ccccc32)c(OC)c1 [MLS001360325] | 65.1 | – |
| CCCCCCSc1ccc([C@H]2N[C@@](Cc3ccccc3)(C(=O)OC)[C@H]3C(=O)N(CC)C(=O)[C@@H]23)cc1 [MLS001362744] | 91.8 | – |
| COc1cc(NS(C)(=O)=O)ccc1Nc1c2ccccc2nc2ccccc12 [MLS002153376] | 84.3 | – |
| O[C@@H]1[C@@H](O)C=C2CCN3Cc4cc5c(cc4[C@H]1C23)OCO5 (some centres unmarked) [MLS002153955] | 77.4 | – |
| CC(C(=O)N1CCCC1)N1CCN(S(=O)(=O)c2ccc(C(C)(C)C)cc2)CC1 (centres unmarked) [MLS002156464] | 92.8 | – |
| Cc1cc(O)c(CN2CCN(S(=O)(=O)c3cccs3)CC2)cc1C(C)C [MLS002157185] | 92.3 | – |
| Cc1ccc(C(=O)Nc2nc(-c3ccccn3)cs2)cc1S(=O)(=O)N1CCOCC1 [MLS002157637] | 58.9 | – |
| O=C(Nc1nc(-c2ccccn2)cs1)c1cccc(S(=O)(=O)N2CCOCC2)c1 [MLS002161290] | 62.2 | – |
| C/C(=N\NC(=O)c1ccccc1OCc1ccc(F)cc1)c1ccccn1 [MLS002162875] | 82 | – |
| CCc1ccccc1OC[C@@H](O)CN[C@H]1CCCc2ccccc21 [MLS002172481] | 97.6 | – |
| CC(C)(C)OC(=O)N1CCC(CC2CC(c3ccccc3)=NO2)(C(=O)NCc2ccccc2)CC1 (centres unmarked) [MLS002174287] | 99.3 | – |
| COc1cc2ccccc2cc1C(=O)N1CCCC(C(F)(F)F)C1 (centres unmarked) [MLS002180647] | 86 | – |
| O=C1N(c2ccccc2C(F)(F)F)OC1(Cc1ccccc1)c1ccccc1 (centres unmarked) [MLS002206595] | 85 | – |
| COc1ccc([C@@]2(C(C)C)ON(c3ccccc3C(F)(F)F)C2=O)cc1 [MLS002206606] | 83.8 | – |

| Structure (SMILES) | viability at 3 µM (in vitro) [%] | other results |
| --- | --- | --- |
| CC[C@]1(c2ccccc2OC)ON(c2ccccc2C(F)(F)F)C1=O [MLS002206607] | 102 | – |
| CC[C@@]1(c2ccccc2OC)ON(c2ccccc2C(F)(F)F)C1=O [MLS002206609] | 92.6 | – |
| COc1ccccc1[C@@]1(C)ON(c2ccccc2C(F)(F)F)C1=O [MLS002206613] | 88.4 | – |
| O=C1C=C(c2cccc(CO)c2)C[C@@H](c2ccc(Cl)cc2)C1 [MLS002302575] | 102 | – |
| N#Cc1nc(Nc2cc(F)cc(F)c2)c2ncn(CC(F)F)c2n1 [MLS002471784] | 90 | – |
| CCNc1nc(C#N)nc2c1ncn2-c1cc(F)cc(F)c1 [MLS002471787] | 99.9 | – |
| Clc1ccccc1C(c1ccccc1)(c1ccccc1)n1ccnc1 [NCGC00015251] | 99.7 | – |
| O=S1(=O)N(CCN2CC=C(c3c[nH]c4cc(F)ccc34)CC2)c2cccc3c2N1CCC3 [NCGC00015600] | 76.3 | – |
| CCc1nc(N)nc(N)c1-c1ccc(Cl)cc1 [NCGC00023188] | 95.9 | – |
| Oc1c(CN2CCN(c3ccccn3)CC2)cc(Cl)c2cccnc12 [NCGC00055619] | 77.4 | – |
| CC(C)(C)CC(C)(C)c1ccc(O)c(Cc2ccc(Cl)cc2Cl)c1 [NCGC00095016] | 93.1 | – |
| CC[C@@H](C(=O)[C@@H](C)[C@@H](O)[C@H](C)CCc1ccc(C)c(O)c1C(=O)O)[C@H]1O[C@](CC)([C@H]2CC[C@](O)(CC)[C@H](C)O2)C[C@@H]1C [NCGC00095029] | 27.3 | – |
| FC(F)(F)c1cccc(Nc2nc3nonc3nc2Nc2ccc(Cl)cc2)c1 [NCGC00100377] | 47.1 | – |
| Cc1ccc(NC2=C(c3ccc(C(F)(F)F)cc3)C(=O)c3ccccc32)cc1F [NCGC00107266] | – | Max Resp (signal direction of the dose response) [1]: Decrease; AC50 [1, 2]: 112 nM; AC50 [1, 3]: 112 nM |
| Cc1ccc(NC2=C(c3ccc(C(F)(F)F)cc3)C(=O)c3ccccc32)cc1C [NCGC00107300] | – | Max Resp (signal direction of the dose response) [1]: Decrease; AC50 [1, 2]: 398 nM; AC50 [1, 3]: 398 nM |
| Cc1ccc(C)c(NC2=C(c3ccc(C(F)(F)F)cc3)C(=O)c3ccccc32)c1 [NCGC00107302] | – | Max Resp (signal direction of the dose response) [1]: Decrease; AC50 [1, 2]: 398 nM; AC50 [1, 3]: 398 nM |
| O=C1C(c2ccc(C(F)(F)F)cc2)=C(Nc2ccc(Cl)cc2)c2ccccc21 [NCGC00107304] | – | Max Resp (signal direction of the dose response) [1]: Inactive |
| COc1ccc(NC2=C(c3ccc(C(F)(F)F)cc3)C(=O)c3ccccc32)cc1 [NCGC00107310] | – | Max Resp (signal direction of the dose response) [1]: Decrease; AC50 [1, 2]: 282 nM; AC50 [1, 3]: 282 nM |
